These results are taken from patent EP1053246B1, “BETA-SHEET MIMETICS AND METHODS RELATING TO THE USE THEREOF” (MOLECUMETICS, LTD., priority 1998, dated 1999).

One assay addresses t-PA (Homo sapiens, UniProt P00750). Description: t-PA inhibition assay (Ki, Example 5). It is filed as biochemical. The conditions noted are these: tissue Plasminogen Activator; read-out: Ki (M) tPA. As for the experimental part:
(§1) The reaction progress curves were recorded by reading the plates, typically 60 times with 30 second to 2 minute intervals. Initial rates were determined by unweighted nonlinear least-squares fitting to a first order reaction in GraFit (Erithacus Software Limited, London, England).

Another assay has as its target Factor XI (Homo sapiens, UniProt P03951). Nature of the assay: Factor XI inhibition assay (Ki). The assay is classed as biochemical. The conditions noted are these: read-out: Ki (M) Factor XI.
The target of assay [1] is T1, urokinase (Homo sapiens, UniProt P00749). Nature of the assay: urokinase inhibition assay (Ki, Example 5). The assay is classed as biochemical, human kidney. Set-up: from tissue; host or cells: human kidney.
The next assay deals with T2, factor VII (Homo sapiens, UniProt P08709).
T2 construct: human Factor VIIa (FVIIa)
T2 sequence (P08709 61-212 limits assumed): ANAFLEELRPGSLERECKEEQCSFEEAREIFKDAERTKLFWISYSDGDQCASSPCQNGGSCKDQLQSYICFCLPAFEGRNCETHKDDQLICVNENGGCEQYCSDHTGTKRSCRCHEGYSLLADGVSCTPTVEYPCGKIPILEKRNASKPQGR
T2 sequence (P08709 213-466 limits assumed): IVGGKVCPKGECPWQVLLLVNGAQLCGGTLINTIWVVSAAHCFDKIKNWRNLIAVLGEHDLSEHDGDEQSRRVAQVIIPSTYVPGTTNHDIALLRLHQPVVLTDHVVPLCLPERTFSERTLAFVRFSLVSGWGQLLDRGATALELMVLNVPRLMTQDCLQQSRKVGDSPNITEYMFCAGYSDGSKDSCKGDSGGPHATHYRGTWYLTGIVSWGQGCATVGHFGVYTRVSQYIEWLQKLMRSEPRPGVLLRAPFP
Description: Factor VII inhibition assay (Ki, Example 5). It is filed as biochemical. Particulars: read-out: Ki (M) Factor VII. As for the experimental part: as §1
From this concentration point seven more sequential dilutions were made for the assay.

The target in assay [2] is T3, Plasmin (Bos taurus, UniProt P06868). Nature of the assay: plasmin inhibition assay (Ki, Example 5). Set-up: Plasmin: Buffer (see thrombin assay); from tissue; host or cells: bovine plasma. It is filed as biochemical, bovine plasma. Particulars: read-out: Ki (M) Plasmin. As for the experimental part:
as §1

For assay [3], the target named is T4, thrombin (Bos taurus, UniProt P00735). Nature of the assay: thrombin inhibition assay (IC50, Example 4). It is filed as biochemical, bovine. The conditions noted are these: footnote d: IC50.
Assay [4] deals with T3, Plasmin. Description: plasmin inhibition assay (IC50, Example 4). It is filed as biochemical. On the set-up: Plasmin: Buffer (see thrombin assay). The conditions noted are these: footnote d: IC50. As for the experimental part: (§2) All inhibition assays of this experiment were performed at room temperature in 96 well microplates using a Bio-Rad microplate reader (Model 3550). […] This solution (2.05 mM) served as the stock solution for all the inhibition assays. The hydrolysis of chromogenic substrates was monitored at 405 nm. The reaction progress curves were recorded by reading the plates typically 90 times with 30 seconds to 2 minute intervals. The initial rate were determined by unweighted nonlinear least-squares fitting to a first order reaction in GraFit.
For dilutions of structure (13b) (see urokinase assay).

A further assay has as its target T5, FVIIa and TF complex (Homo sapiens, UniProt P08709).
T5 construct: 50 µl of 16 nM FVIIa and TF complex solution
Description: Factor VII inhibition assay (IC50, Example 4). The assay is classed as biochemical. The conditions noted are these: footnote d: IC50. As for the experimental part:
as §2
In the Factor VII assay, S-2288 (from Pharmacia), D-Ile-Pro-Arg-pNA was used at […] in deionized water as substrate. […] This dilution served as the first point of the inhibitor (20 µM). From this concentration point 6 more sequential dilutions were made with a dilution factor of 2. 50 µl of 16 nM FVIIa and TF complex solution and 40 µl of the inhibitor solutions were added into each well, the mixtures were incubated for 20 minutes before 10 µl of 20 mM S-2288 was added.

The target in assay [5] is Tissue Plasminogen Activator (t-PA) (Homo sapiens, UniProt P00750). Description: t-PA inhibition assay (IC50, Example 4). The assay is classed as biochemical. The conditions noted are these: footnote d: IC50. As for the experimental part: as §2
Assay [6] concerns the target Activated Protein C (aPC) (Homo sapiens, UniProt P04070). Nature of the assay: activated protein C inhibition assay (IC50, Example 4). The assay is classed as biochemical. Particulars: footnote d: IC50. As for the experimental part:
as §2
Activated Protein C (aPC): Buffer was the same as used in thrombin assay. […] Dilutions of structure (13b) were the same as in urokinase assay.

The next assay has as its target T6, bovine trypsin (Bos taurus, UniProt P00760).
T6 construct: purchased Sigma
Description: trypsin inhibition assay (IC50, Example 4). It is filed as biochemical. The conditions noted are these: footnote d: IC50. As for the experimental part: as §2
In the trypsin assay, pH 7.8 Tris (0.10 M Tris and 0.02 M CaCl2) was utilized as the buffer. BAPNA (from Sigma) was used at 1 mg/ml in 1% DMSO (v/v) deionized water solution as substrate. The same dilutions of structure (13b) were made as for Factor VII assay.

For another assay, the target named is T7, bovine factor Xa (Bos taurus, UniProt P00743).
T7 construct: bovine factor Xa (from Sigma); purchased Sigma
Description: Factor X inhibition assay (IC50, Example 4). It is filed as biochemical. The conditions noted are these: footnote d: IC50; footnote e: bovine plasma; read-out: IC50 Factor X. As for the experimental part: as §2
In the Factor X assay, buffer and substrate are the same as used for thrombin assay. A 1:100 dilution was made into pH 8.4 Tris buffer to serve as the first point. Seven dilutions with a dilution factor of 2 were made. The assay protocol is the same as for thrombin except 25 nM of bovine factor Xa (from Sigma) in pH 8.4 Tris buffer was used instead of thrombin.

The target of assay [7] is T1, urokinase. Nature of the assay: urokinase inhibition assay (IC50, Example 4). The assay is classed as biochemical. On the set-up: purchased Sigma. Particulars: footnote d: IC50. As for the experimental part:
as §2
In the urokinase assay, buffer was pH 8.8 0.05 M Tris and 0.05 M NaCl in deionized water. S-2444 (from Sigma), pyroGlu-Gly-Arg-pNA at 0.5 mM in water was utilized as substrate. The same dilution procedure was used as for Factor VII and Factor X. Assay protocol is the same as for thrombin except 18.5 nM of human urokinase (from Sigma) was utilized.

Assay [8] concerns the target T4, thrombin. Description: thrombin inhibition of solid phase synthesized mimetics. It is filed as biochemical. Particulars: assayed as mixtures of diastereomers; read-out: Ki as thrombin inhibitors (asterisk at compound number). As for the experimental part:
General Procedure: The synthesis of β-strand mimetics was initiated by deprotection of Fmoc PAL resin using 25% piperidine in DMF. Following extensive washing with DMF, the resin was treated with the acid fluoride of N-Fmoc-4-aminomethylbenzoic acid, or (81), or (86) and Hunigs' base in DMF until the Kaiser test was negative. Alternatively, the Fmoc-protected thiazole- (75) or imidazole-based (77) linkers were coupled to the resin using BOP, HOBt and DIEA. In some instances Fmoc-Leu or another amino acid was attached to the resin prior to the thiazole- (75) or imidazole-based (77) linkers via the same methodology. […] Deprotection of all Fmoc-protected linkers was effected by treatment with 25% piperidine in DMF, and deprotection the Boc-protected linker (77) was effected by TMS-Cl (1 M) and phenol (3 M) in dichloromethane for 30 min. The lysinol derivative (90) was coupled to resin-bound linkers N-Fmoc-4-aminomethylbenzoic acid, (81), or (86) using PyBOP, HOBt and Hunigs' base in DMF until a negative Kaiser test was achieved. Treatment of the resin with 25% piperidine in DMF then cleaved the FMOC group. Following washing with DMF a dienoic acid was coupled to the resin-bound linkers using PyBOP, HOBt and Hunigs' base in DMF until the result of a Kaiser test was negative. […]

Bounds are passed on as bounds.

T3 sequence (P06868 104-583 limits assumed): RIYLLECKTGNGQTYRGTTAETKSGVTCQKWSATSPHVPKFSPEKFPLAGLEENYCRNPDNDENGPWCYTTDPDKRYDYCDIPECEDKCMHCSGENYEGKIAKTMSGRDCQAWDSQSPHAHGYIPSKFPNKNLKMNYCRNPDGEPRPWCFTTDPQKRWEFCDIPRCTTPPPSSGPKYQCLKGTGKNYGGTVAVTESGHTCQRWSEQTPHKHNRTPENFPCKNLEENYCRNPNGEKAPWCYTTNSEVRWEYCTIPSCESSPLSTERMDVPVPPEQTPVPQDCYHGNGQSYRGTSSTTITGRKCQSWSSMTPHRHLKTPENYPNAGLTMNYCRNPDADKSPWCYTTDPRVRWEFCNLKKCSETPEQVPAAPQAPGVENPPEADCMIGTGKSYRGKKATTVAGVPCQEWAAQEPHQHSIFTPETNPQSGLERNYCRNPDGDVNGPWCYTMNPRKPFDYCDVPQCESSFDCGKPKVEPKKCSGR
T3 sequence (P06868 584-812 limits assumed): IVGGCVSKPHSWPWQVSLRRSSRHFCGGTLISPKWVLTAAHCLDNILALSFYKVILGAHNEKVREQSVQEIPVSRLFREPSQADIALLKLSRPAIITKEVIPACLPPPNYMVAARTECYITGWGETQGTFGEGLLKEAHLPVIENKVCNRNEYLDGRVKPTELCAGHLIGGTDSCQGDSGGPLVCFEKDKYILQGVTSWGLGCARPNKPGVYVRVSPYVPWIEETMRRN
T7 sequence (P00743 41-180 limits assumed): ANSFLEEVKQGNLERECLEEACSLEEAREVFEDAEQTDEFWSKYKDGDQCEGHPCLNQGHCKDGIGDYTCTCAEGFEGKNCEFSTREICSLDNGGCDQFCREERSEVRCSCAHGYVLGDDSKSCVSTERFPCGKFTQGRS
T7 sequence (P00743 234-492 limits assumed): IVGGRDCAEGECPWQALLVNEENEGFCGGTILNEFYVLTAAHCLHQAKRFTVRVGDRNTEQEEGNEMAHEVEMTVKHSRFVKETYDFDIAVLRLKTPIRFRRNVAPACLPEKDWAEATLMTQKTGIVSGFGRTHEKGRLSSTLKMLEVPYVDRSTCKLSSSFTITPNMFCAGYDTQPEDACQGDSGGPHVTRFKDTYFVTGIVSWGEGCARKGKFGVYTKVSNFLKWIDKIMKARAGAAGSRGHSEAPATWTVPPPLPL
Sequence of Activated Protein C (aPC) (P04070 43-197 limits assumed): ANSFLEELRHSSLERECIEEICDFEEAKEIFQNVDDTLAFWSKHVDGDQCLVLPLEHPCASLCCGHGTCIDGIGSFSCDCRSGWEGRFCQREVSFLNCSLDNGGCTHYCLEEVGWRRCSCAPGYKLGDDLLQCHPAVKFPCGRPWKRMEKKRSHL
Sequence of Activated Protein C (aPC) (P04070 212-461 limits assumed): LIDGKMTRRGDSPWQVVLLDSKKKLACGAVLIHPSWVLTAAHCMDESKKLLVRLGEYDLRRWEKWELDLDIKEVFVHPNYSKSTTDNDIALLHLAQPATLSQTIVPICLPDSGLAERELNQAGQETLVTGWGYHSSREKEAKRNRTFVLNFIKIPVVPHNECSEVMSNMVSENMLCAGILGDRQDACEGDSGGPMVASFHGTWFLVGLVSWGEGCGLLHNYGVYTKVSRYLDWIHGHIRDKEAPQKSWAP
Sequence of t-PA (P00750 36-562): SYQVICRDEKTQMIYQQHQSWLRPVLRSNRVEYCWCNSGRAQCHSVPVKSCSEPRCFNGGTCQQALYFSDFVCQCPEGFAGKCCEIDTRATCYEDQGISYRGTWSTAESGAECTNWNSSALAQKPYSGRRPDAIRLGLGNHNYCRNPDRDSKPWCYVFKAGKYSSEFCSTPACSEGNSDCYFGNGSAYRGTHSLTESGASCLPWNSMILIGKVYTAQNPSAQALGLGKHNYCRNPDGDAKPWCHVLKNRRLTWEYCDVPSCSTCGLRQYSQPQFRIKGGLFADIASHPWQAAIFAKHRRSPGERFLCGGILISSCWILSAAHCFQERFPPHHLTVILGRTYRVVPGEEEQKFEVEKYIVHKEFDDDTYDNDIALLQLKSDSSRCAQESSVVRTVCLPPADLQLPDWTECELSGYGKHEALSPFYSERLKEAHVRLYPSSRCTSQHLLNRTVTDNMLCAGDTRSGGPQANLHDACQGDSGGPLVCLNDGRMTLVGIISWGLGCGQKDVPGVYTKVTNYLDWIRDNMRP
Sequence of Tissue Plasminogen Activator (t-PA) (P00750 36-562): as above
Sequence of Factor XI (P03951 388-625 limits assumed): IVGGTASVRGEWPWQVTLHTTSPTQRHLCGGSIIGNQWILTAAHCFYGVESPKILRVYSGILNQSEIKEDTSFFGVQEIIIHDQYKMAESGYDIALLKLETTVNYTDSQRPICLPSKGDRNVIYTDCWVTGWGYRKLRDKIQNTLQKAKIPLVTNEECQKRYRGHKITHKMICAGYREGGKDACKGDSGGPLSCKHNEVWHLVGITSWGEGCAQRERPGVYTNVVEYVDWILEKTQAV
Sequence of Factor XI (P03951 19-387 limits assumed): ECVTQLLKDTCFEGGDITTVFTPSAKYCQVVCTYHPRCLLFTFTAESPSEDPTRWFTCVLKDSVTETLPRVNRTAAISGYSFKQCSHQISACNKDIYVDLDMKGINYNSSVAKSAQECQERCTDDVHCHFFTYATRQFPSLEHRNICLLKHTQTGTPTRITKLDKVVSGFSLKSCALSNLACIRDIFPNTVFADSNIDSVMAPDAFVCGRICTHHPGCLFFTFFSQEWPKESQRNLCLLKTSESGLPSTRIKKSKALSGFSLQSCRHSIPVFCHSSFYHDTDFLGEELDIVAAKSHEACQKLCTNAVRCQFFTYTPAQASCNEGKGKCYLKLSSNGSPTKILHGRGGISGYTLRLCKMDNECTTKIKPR
T6 sequence (P00760 24-246): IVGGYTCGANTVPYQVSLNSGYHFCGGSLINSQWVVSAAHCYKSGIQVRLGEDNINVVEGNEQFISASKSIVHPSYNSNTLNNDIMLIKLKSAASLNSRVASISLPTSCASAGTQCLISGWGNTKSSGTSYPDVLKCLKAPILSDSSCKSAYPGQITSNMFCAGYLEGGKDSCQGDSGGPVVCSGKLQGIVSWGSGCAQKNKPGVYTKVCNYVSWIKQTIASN
T5 sequence (P13726 33-295 partner, one chain of several): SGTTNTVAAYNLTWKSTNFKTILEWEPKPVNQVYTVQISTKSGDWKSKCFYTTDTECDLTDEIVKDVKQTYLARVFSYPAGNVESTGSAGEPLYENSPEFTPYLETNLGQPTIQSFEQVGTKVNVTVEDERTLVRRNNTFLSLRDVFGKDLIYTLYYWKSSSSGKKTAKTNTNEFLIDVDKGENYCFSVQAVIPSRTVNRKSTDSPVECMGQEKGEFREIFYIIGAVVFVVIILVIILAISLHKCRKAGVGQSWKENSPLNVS

With `N=C(N)NCCCC(NC(=O)C1CCN2CCC(N)(Cc3ccccc3)C(=O)N12)C(=O)c1nc2ccccc2s1` (centres unmarked) [Structure (20b)], the inhibition constant (Ki) on t-PA stood at 4.95e-07 M; at Factor XI it was 2.7e-08 M; at urokinase [1] it was 600 nM; on factor VII it was 2.7e-07 M; on Plasmin [2], 4.15e-07 M.

`N=C(N)NCCC[C@H](NC(=O)[C@@H]1CCN2CC[C@@](N)(Cc3ccccc3)C(=O)N12)C(=O)CCl` [Structure (13b)]: the IC50 at thrombin [3] is 1.2 nM; against Plasmin [4], 978 nM; against FVIIa and TF complex, 140 nM; in assay [5], 632 nM; in assay [6], 528 nM; against bovine trypsin, 160 nM. Besides, the figures for the IC50 on bovine factor Xa and against urokinase [7] were 386 nM and 927 nM, respectively.

On to `CC/C=C\CCC1C=CC(C(=O)NC(CCCCN)C(=O)C(=O)NCCc2ccc(C(N)=O)cc2)n2c(=O)n(CC(c3ccccc3)c3ccccc3)c(=O)n21` (centres unmarked) [compound 106], for which, at thrombin [8], the Ki was under 10 nM.
